The record followed here is patent US20230295571A1, “COMPOSITIONS AND METHODS FOR STEM CELL CHONDROGENESIS” (Washington University, priority 2020, published 2023).

Structures are written as SMILES. Entries after “also recorded” stand apart in the source; their conditions may differ.

Holding throughout (type): cell-based, human
The test system of assay [1] is hMSC pellets. Kind of assay: Chondrogenesis of hMSC pellets with WNT inhibition (Saf-O, GAG/DNA). From the text:
hMSCs and culture. Discarded and deidentified waste tissue from the iliac crests of adult bone marrow transplant donors was collected in accordance with the institutional review board of Washington University in Saint Louis. Human bone marrow-derived MSCs (hMSCs) were isolated by their physical adherence to plastic culture vessels. Cells were expanded and maintained in an expansion medium consisting of DMEM-low glucose (Thermo Fisher Scientific, #11885092), 1 penicillin/streptomycin (P/S, Thermo Fisher Scientific, #15140-122), 10% lot-selected FBS (Atlanta Biologicals, #S11550), and 1 ng ml^−1 basic fibroblast growth factor (FGF) (R&D Systems, #233-FB). Three individual donors were used as biologic replicates in subsequent experiments.
WNT-C59 and ML329 treatment for WNT and MITF inhibition. For WNT-C59 treatment for WNT inhibition during chondrogenesis, pellets were treated with either 10 ng ml^−1 TGF-β3 (control group) or a combination of 10 ng ml^−1 TGF-β3 and 1 μM WNT-C59 in a chondrogenic medium from d0 to d42 as appropriate. […]
Biochemical analysis of cartilaginous matrix production. […] GAG content, as calculated based on the standard curve, was normalized to double-stranded DNA content to obtain the GAG/DNA ratio.

Assay [2] relates to hiPSC chondrogenic pellets. Kind of assay: RNA-FISH of d28 pellets for WNT3A, WNT4 and COL2A1. Conditions: d28 pellets vs TGF-β3-treated. How it is done: RNA fluorescence in situ hybridization (RNA-FISH). […] Pellets were cryo-sectioned at 10 μm thick and fixed using 4% paraformaldehyde in PBS on ice for 10 min. Sample pre-treatment and RNA probe hybridization, amplification, and signal development were performed using the RNAscope Multiplex Fluorescent Reagent Kit v1 (Advanced Cell Diagnostics, #320850) following the manufacturer's instruction. Samples were imaged with multichannel confocal microscopy (Zeiss LSM 880). Tiled images with Z-stacks were taken at 20× magnification to capture the entire pellet. Maximum intensity projection, a process in which the brightest pixel (voxel) in each layer along Z direction is projected in the final 2D image, was performed using Zeiss Zen Blue (version 2.5).

For assay [3], the system named is hiPSC chondrogenic pellets. Description: scRNA-seq of hiPSC chondrogenic pellets with WNT inhibition. How it is done:
On the day of collection for bulk RNA-seq experiments, 3-4 pellets per experimental group were pooled together and washed once with phosphate-buffered saline (PBS), snap-frozen in 300 μl of Buffer RL (Norgen Biotek), and stored at −80° C. until processing for RNA extraction. At harvesting time points for scRNA-seq experiments, 6-8 pellets per experimental group were pooled and digested with 0.04% Type II collagenase solution in DMEM/F12 for 1 h. Cells were washed once with PBS, resuspended in standard freezing medium, and stored in liquid nitrogen until needed.
WNT-C59 and ML329 treatment for WNT and MITF inhibition. For WNT-C59 treatment for WNT inhibition during chondrogenesis, pellets were treated with either 10 ng ml^−1 TGF-β3 (control group) or a combination of 10 ng ml^−1 TGF-β3 and 1 μM WNT-C59 in a chondrogenic medium from d0 to d42 as appropriate. For WNT-C59 and ML329 treatment (ML, Axon Medchem, HY-101464) for WNT and MITF inhibition during chondrogenesis, pellets were treated with either 10 ng ml^−1 TGF-β3 (control group), a combination of 10 ng ml^−1 TGF-β3 and 1 μM ML, a combination of 10 ng ml^−1 TGF-β3 and 1 μM WNT-C59, or a combination of 10 ng ml^−1 TGF-β3, 1 μM ML and 1 μM WNT-C59 in chondrogenic medium from d0 to d42 as appropriate.
10× chromium platform scRNA-seq. Cells were thawed at 37° C. and resuspended in PBS with 0.04% bovine serum albumin at a concentration of 2000 cells per μl. Cell suspensions were submitted to the GTAC sequencing core at Washington University in St. Louis for library preparation and sequencing. In brief, 10,000 cells per sample were loaded on a Chromium Controller (10× Genomics) for single capture. Libraries were prepared using Single Cell 3′ Library & Gel Bead Kit v2 (#120237 10× Genomics) following the manufacture's instruction. A single cell emulsion (Gel Bead-In-EMulsions, GEMs) is created by making barcoded cDNA unique to each individual emulsion. A recovery agent was added to break GEM and cDNA was then amplified. A library is produced via end repair, dA-tailing, adapter ligation, post-ligation cleanup with SPRIselect, and sample index PCR. The quality and concentration of the amplified cDNA were evaluated by Bioanalyzer (Agilent 2100) on a High Sensitivity DNA chip (Agilent, #5065-4401). The only cDNA with an average library size of 260-620 bp were used for sequencing. Sequencing was performed by IIlumina HiSeq2500 with the following read length: 26 bp for Read1, 8 bp for i7 Index, and 98 bp for Read2. We generally acquired ˜180 million reads per library (sample). A species mixing experiment (mouse adipose stem cells and human iPSCs, 1:1 mixture) was also performed prior to running on the actual sample to ensure good quality of single-cell capture (i.e., cell doublet rate<5%).
Preprocessing of scRNA-seq data. Paired-end sequencing reads were processed by Cell Ranger (10× Genomics software, version 2.0.0). Reads were aligned to the GRCh38 (version 90) for genome annotation, demultiplexing, barcode filtering, and gene quantification. Cell Ranger also removes any barcode that has less than 10% of the 99th percentile of total unique molecular identifiers (UMI) counts per barcode as these barcodes are considered to be associated with empty droplets. After this quality control, gene barcode matrices for each sample were generated by counting the number of UMIs for a given gene (as a row) in the individual cell (as a column). For each sample, ˜1300-2500 cells were captured.
Unsupervised clustering analysis and annotation. To assess the difference in the composition of cell populations, global unsupervised clustering analysis was performed for our scRNA-seq datasets. First, gene barcode matrices were input into the Seurat R package (version 2.4). Then, the low-quality cells with less than 200 or more than 7000 detected genes or if their mitochondrial gene content was more than 5% were removed. […]

Where [4] appears, read: trajectory vs TGF-β3-treated pellets.

For the compound `Cc1cc(-c2ccc(CC(=O)Nc3ccc(-c4cccnc4)cc3)cc2)ccn1` [WNT-C59], the “GAG/DNA ratio of hMSC pellets” value in assay [1] (donor 1 and donor 3, vs TGF-β3 alone) was “significantly increased”. Besides, in assay [1] (hMSCs from 3 donors, WNT-C59 during pellet culture), the “chondrogenesis of hMSC pellets” value is on record as “increased”. In assay [2], the “COL2A1 RNA-FISH labeling” value is listed as “more homogenous distribution; also recorded: increased”; the “WNT3A and WNT4 expression (RNA-FISH)” value is reported as “decreased”. Besides, in assay [3] (WNT-C59-treated pellets d7-d42), the “neural cells and melanocytes in pellets” value is “significantly decreased”. Also, the “percentage of BMP4-expressing cells” value in assay [3] (d14, all clusters except ISG15/IFI6/MX1+ chondrocytes) was “decreased percentage”. Also, the “percentage of GDF5 and BMPR1B expressing cells” value in assay [3] (d14, all clusters vs TGF-β3-treated) is “remarkably increased percentage”. Further, in assay [3] (d14, several chondrocyte subpopulations), the “percentage of cells expressing BMPR2” value is listed as “decreased”. The “expression of most WNTs” value in assay [3] (d14 and d28 pellets, particularly proliferative cells) is reported as “decreased expression”. In assay [3] (d14 pellets), the “FRZB expression in chondrocyte population” value is given as “upregulated”, the “ID2 (neurogenic marker) in proliferative cells” value is “decreased” and the “PRG4 in mesenchymal cells” value is “increased”. The “mesenchyme and chondrocytes content” value in assay [3] (d14 pellets vs TGF-β3 only) is recorded as “more”. Moreover, the “IFI6 and ISG15 (mature-hypertrophic chondrocyte markers)” value in assay [3] (d28 pellets) is reported as “downregulated”. In assay [3] (d28 pellets vs standard-treated), the “expression of ACAN and COMP” value was “increased”. Moreover, in assay [3] (setting [4]), the chondrogenic markers result is “enriched expression” and the neurogenic markers entry is recorded as “little, if any”. Also, in assay [3] (vs TGF-β3 alone), the “ACAN expression in pseudotime” value is listed as “earlier induction”; the “COL2A1 and SOX9 expression in pseudotime” value is “higher levels”; the “SOX2 expression in pseudotime” value was “earlier decrease”.
